Test results as given in paper PMC11253855, “Phosphonodiamidate prodrugs of phosphoantigens (ProPAgens) exhibit potent Vγ9/Vδ2 T cell activation and eradication of cancer cells” (RSC Medicinal Chemistry, 2024).

Columns and labels:
[1] = tested on: Vγ9/Vδ2 T cells; experiment: In vitro Vγ9/Vδ2 T cell activation assay (PBMCs, CD69+ CD25+ by flow cytometry); format: cell-based, human; conditions: for Activation of Vγ9/Vδ2 T cells at the highest concentration studied: 100 μM compared with 10 μM; for EC50: Homo sapiens, T-cell, read-out: EC50 (activation of Vγ9/Vδ2 T cells)
Experimental: Subsequently, we studied the ability of these HMBP phosphonodiamidate ProPAgens to activate Vγ9/Vδ2 T cells and elicit their lysis of cancer cells in vitro. For this, peripheral blood mononuclear cells (PBMCs) derived from healthy donors and containing Vγ9/Vδ2 T cells were incubated with increasing concentrations of zoledronate or phosphonodiamidate HMBP ProPAgens 9a–d and 14a–d (up to 100 μM) (Fig. 4). Peripheral blood γδ T cells lack appreciable levels of surface CD69 or CD25 under steady-state conditions, but TCR stimulation upregulates both T cell activation markers.[6] Thus, PAg-responsive Vγ9/Vδ2 T cells were then assessed for the upregulation of CD69 and CD25.
Fig. 4 In vitro phosphonodiamidate ProPAgen-mediated activation of Vγ9/Vδ2 T cells, following overnight incubation with zoledronate, and HMBP ProPAgens 9a–d and 14a–d. Levels of activation are represented as % of Vγ9/Vδ2 T cells that are CD69+ CD25+. Data is shown as mean ± SE (n = 4). (A) Activation of Vγ9/Vδ2 stimulated by phosphonodiamidate ProPAgens 9a–d. (B) Activation of Vγ9/Vδ2 stimulated by ProPAgens 14a–d. (C) Activation of Vγ9Vδ2 stimulated by zoledronate (Zol). (D) EC50 values were calculated using GraphPad Prism v9 based on the results of the activation assay.
As for the activation of Vγ9/Vδ2 T cells by the phosphonodiamidate ProPAgens (9a–d and 14a–d), these were initially tested using a concentration range from […] to 100 μM (Fig. 4A and B).
Healthy donor peripheral blood mononuclear cells (PBMCs) were harvested as previously described.[20] To assess the activation of Vγ9/Vδ2 T cells, PBMCs were seeded into U-bottom tissue culture-treated 96-well plates at a cell density of 500 000 cells per well. The cells were incubated with medium-only (control), in the presence of zoledronate at 10 pM to 100 μM, and with HMBP ProPAgens initially at 10 pM to 100 μM, and then at 1 aM to 100 μM for compounds 9d and 14d in a separate experiment. The cells were incubated at 37 °C/5% CO2 overnight, and stained by flow cytometry for the following markers: viability (Zombie Aqua 1 : 400), CD3 (BV421 1 : 100), CD8 (BV650 1 : 200), Vγ9 (PEcy5 1 : 400), Vδ2 (APC 1 : 200), CD69 (PE 1 : 25), CD25 (FITC 1 : 100). The samples were acquired via LSRFortessa X20 (BD Biosciences), and the data obtained were analyzed using FlowJo v10 and GraphPad Prism v9 software.

[2] = tested on: T24 cells; experiment: Europium-based (DELFIA) cytotoxicity assay: Vγ9/Vδ2 T cell killing of drug-treated T24 cells; set-up: species or system human; conditions: 10 nM ProPAgen for 2 h versus 10 μM zoledronate; effector : target 80 : 1, 1 h
Experimental: Encouraged by the potency and specificity of our HMBP phosphonodiamidate ProPAgens, especially 9d and 14d, we subsequently studied their ability to sensitize the urinary bladder carcinoma cell line T24 for targeted killing by in vitro expanded Vγ9/Vδ2 T cells (Fig. 5). In brief, T24 cells were incubated in PBS containing 10 μM zoledronate or the indicated HMBP phosphonodiamidate ProPAgens for a period of 2 h. A positive control for cell death (target cells incubated with 10% v/v DELFIA lysis buffer) and media-only treated control (no drug) was also included. The cells were then washed and cocultured with ex vivo expanded Vγ9/Vδ2 T cells for 1 h at 80 : 1 effector : target ratio, and the level of killing of T24 cells was then measured via time-resolved fluorescence.
Fig. 5 Cytotoxicity of Vγ9/Vδ2 T cells toward the phosphonodiamidate ProPAgen-treated T24 cells. % killing of T24 cells was calculated with this formula: [(experimental release − spontaneous release)/(maximal release − spontaneous release)] × 100. […]
To assess the level of killing of drug-treated and untreated tumour cells, a Europium-based cytotoxicity assay was performed (DELFIA, Perkin Elmer) as described elsewhere.[47] […] Time-resolved fluorescence was then measured using a PHERAstar microplate reader (BMG Labtech). […] The data were processed and analysed using Microsoft Excel and GraphPad Prism v9 software.

[3] = Human serum stability assay (31P NMR); format: in vitro ADME; conditions: 37 °C, read-out: human serum stability t1/2
Experimental: Upon synthesis, we first studied whether these phosphonodiamidate ProPAgens are stable in human serum. As a representative of this class of phosphonodiamidate ProPAgens in the serum stability studies, we chose ProPAgen 9b, which has an iPr ester like the two FDA-approved phosphoramidate prodrugs, sofosbuvir and tenofovir alafenmide.[24,33] Thus, ProPAgen 9b was incubated with human serum at 37 °C for […] and monitored the sample by ^31P NMR, as we reported previously.[20] […] Following the incubation of the phosphonodiamidate ProPAgen 9b with human serum and monitoring of the sample by ^31P-NMR, these original 9b^31P-NMR peaks remained present through the 7.5 h of the study, and no new ^31P-NMR peaks were observed. […] This stability profile is in line with the aryloxy diester phosphoramidate prodrugs of these monophosphonates that we reported[20] before and that of the analogous symmetrical nucleoside phosphorodiamidate prodrugs.[26]
Fig. 2 Stability of the HMBP phosphonodiamidate ProPAgen 9b in human serum at 37 °C for 7.5 h as monitored by ^31P NMR. […]
This experiment was carried out as previously reported.[20,26,40] […] After recording the first ^31P NMR data, 0.3 mL human serum (Merck Life Sciences) was added and monitored by NMR. […] Recorded data were processed and analyzed with Bruker Topspin 2.1 software.

[4] = molecular target: T1, carboxypeptidase Y (Saccharomyces cerevisiae, UniProt P00729); experiment: Carboxypeptidase Y assay (31P NMR); format: in vitro ADME; conditions: recombinant carboxypeptidase Y, 37 °C, 6.5 h
T1 sequence (P00729 112-532): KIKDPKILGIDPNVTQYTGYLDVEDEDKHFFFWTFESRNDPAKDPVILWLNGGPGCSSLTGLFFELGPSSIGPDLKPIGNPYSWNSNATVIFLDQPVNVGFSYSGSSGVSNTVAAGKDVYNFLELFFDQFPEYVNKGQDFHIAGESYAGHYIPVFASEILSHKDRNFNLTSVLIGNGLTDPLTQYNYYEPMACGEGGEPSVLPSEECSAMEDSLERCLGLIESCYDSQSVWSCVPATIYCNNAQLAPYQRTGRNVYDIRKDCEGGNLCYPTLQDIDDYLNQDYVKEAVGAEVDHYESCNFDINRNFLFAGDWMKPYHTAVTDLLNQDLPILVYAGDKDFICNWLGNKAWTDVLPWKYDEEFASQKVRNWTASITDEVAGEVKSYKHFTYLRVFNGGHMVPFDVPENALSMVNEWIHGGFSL
Experimental: Fig. 3 Metabolism of diamidate ProPAgens.
With this postulated mechanism of phosphonodiamidate prodrugs in mind, we subsequently incubated the phosphonodiamidate ProPAgen 9b with recombinant carboxypeptidase Y at 37 °C and monitored the reaction by ^31P-NMR for 6.5 h. […] Upon addition of carboxypeptidase Y and within 0.5 h, a new ^31P NMR triplet (δP = 6.82, 7.27 and 7.72 ppm) appeared and became prominent as the assay proceeded while the original ^31P NMR peaks (δP = 14.16, 14.67 and 15.14 ppm) corresponding to ProPAgen 9b reduced over time.
This experiment was carried out as previously reported.[20,26,40] 5.0 mg of the phosphonodiamidate ProPAgen 9b was dissolved in 0.2 mL of acetone, and 0.4 mL of Trizma buffer (pH 7.4) was added followed by 0.5 mg carboxypeptidase Y in 0.2 ml Trizma buffer (pH 7.4). The experiment was run on NMR phosphorus mode and scanned every half an hour for 6.5 h. The incubation temperature was 37 °C. Recorded data were processed and analyzed with Bruker Topspin 2.1 software.

[5] = tested on: cancer patients; set-up: method as in PMID 18301889, PMID 20563721; conditions: in combination with a low dose of IL-2; cited from earlier work

Row | Compound | Activation of Vγ9/Vδ2 T cells at the highest concentration studied [1] | sensitizing effect for killing of T24 cells by Vγ9/Vδ2 T cells [2] | half-life at 10 mg/mL [3] [h] | EC50 [1] [nM] | carboxypeptidase Y-mediated breakdown [4] | safety and tolerability in cancer patients [5]
1 | C/C(=C\CC(F)(F)P(=O)(N[C@@H](C)C(=O)OCc1ccccc1)N[C@@H](C)C(=O)OCc1ccccc1)CO [9d, Dibenzyl 2,2′-((((E)-1,1-difluoro-5-hydroxy-4-methylpent-3-en-1-yl)phosphoryl)bis(azanediyl))(2S,2′S)-dipropionate] | less than that achieved with 10 μM | much more potent |  |  |  | 
2 | C/C(=C\CC(F)(F)P(=O)(N[C@@H](C)C(=O)OC(C)C)N[C@@H](C)C(=O)OC(C)C)CO [9b, Diisopropyl 2,2′-((((E)-1,1-difluoro-5-hydroxy-4-methylpent-3-en-1-yl)phosphoryl)bis(azanediyl))(2S,2′S)-dipropionate] |  |  | > 7.5 | 167 | not fully metabolised | 
3 | CC(O)(CBr)CCOP(=O)(O)OP(=O)(O)O (stereo not drawn) [BrHPP, bromohydrin pyrophosphate] |  |  |  |  |  | safe and well tolerated
4 | C/C(=C\CCP(=O)(N[C@@H](C)C(=O)OCc1ccccc1)N[C@@H](C)C(=O)OCc1ccccc1)CO [14d, Dibenzyl 2,2′-((((E)-5-hydroxy-4-methylpent-3-en-1-yl)phosphoryl)bis(azanediyl))(2S,2′S)-dipropionate] | less than that achieved with 10 μM | much more potent |  | 27 |  | 
